Results on 22 compounds are retold here after patent US9981925B2, “Substituted benzo[d][1,2,3]triazines as p70S6K inhibitors” (Merck Patent GmbH, priority 2012, dated 2018).

In one assay the target is p70S6K (T412E mutant) (Homo sapiens (Human), UniProt P23443, T412E). Put plainly: p70S6K enzyme assay. To be noted: 24 μM ATP, 90 min at 25° C., Caliper mobility shift. It is filed as biochemical. Here is the method:
p70S6K inhibitor compounds were diluted and plated in 96 well plates. A reaction mixture including the following components were then added to the compound plate to initiate the enzyme reaction: p70S6K (3 nM, T412E mutant, Millipore) was mixed with 24 μM ATP in an assay buffer containing 100 mM Hepes (pH 7.5), 5 mM MgCl2, 1 mM DTT, 0.015% Brij and 1 μM of the substrate peptide FITC-AHA-[…]-OH (derived from the S6 ribosomal protein sequence, FITC=fluorescein isothiocyanate, AHA=6-aminohexanoic acid). The reaction was incubated for 90 min at 25° C., before the addition of 10 mM EDTA to stop the reaction. The proportion of substrate and product (phosphorylated) peptide was analyzed on a Caliper Life Sciences Lab Chip 3000, using a pressure of −1.4 psi, and upstream and downstream voltages of −3000 and −700, respectively. Product peaks were resolved before substrate peaks on the resulting chromatograms. To assess the inhibitory potential of the compounds, IC50 values were determined, as shown above.

Another assay has as its target His-AKT (Full Length) (Homo sapiens (Human), UniProt P31749). Put plainly: AKT/PKB kinase assay. It is filed as biochemical. The conditions noted are these: 160 μM ATP, 90 min at 25° C., Caliper mobility shift. Here is the method:
In order to measure AKT inhibition in the Caliper Life Sciences LC3000, a TTP Mosquito liquid handling instrument was used to place 125 nl of the appropriate concentration of inhibitor in 100% DMSO (for a dose response curve calculation) into each well of a 384-well plate. To this reaction, the following components were added to a final volume of 12.5 μl: • 0.1 ng/μl His-AKT (Full Length) (Invitrogen, Part # P2999, Lot #641228C); • 160 μM ATP (Fluka, 02055); • 1 mM DTT (Sigma, D0632); • 1 mM MgCl2 (Sigma, M1028); • 1 μM substrate peptide (sequence FITC-AHA-[…]-NH2), synthesized by • Tufts Peptide Synthesis service; • 100 mM HEPES pH 7.5 (Calbiochem, 391338); and • 0.015% Brij-35 (Sigma, B4184).
The reaction was incubated for 90 min at 25° C., and then stopped by the addition of 70 μl of Stop buffer (100 mM HEPES pH 7.5, 0.015% Brij-35, 10 mM EDTA (Sigma, E7889)). The plate was read on a Caliper LC 3000 in an Off-Chip mobility shift assay format, using the following parameters for a 12-sipper chip: screening pressure −2.3 psi, upstream voltage −500, and downstream voltage −3000. These conditions cause unphosphorylated substrate and phosphorylated product peptide to resolve as separate peaks allowing direct measurement of percentage of conversion of substrate to product. The percent conversion was plotted against concentration of inhibitor to produce a sigmoidal dose response curve, from which an IC50 was calculated.

Sequence of His-AKT (Full Length) (P31749 whole entry): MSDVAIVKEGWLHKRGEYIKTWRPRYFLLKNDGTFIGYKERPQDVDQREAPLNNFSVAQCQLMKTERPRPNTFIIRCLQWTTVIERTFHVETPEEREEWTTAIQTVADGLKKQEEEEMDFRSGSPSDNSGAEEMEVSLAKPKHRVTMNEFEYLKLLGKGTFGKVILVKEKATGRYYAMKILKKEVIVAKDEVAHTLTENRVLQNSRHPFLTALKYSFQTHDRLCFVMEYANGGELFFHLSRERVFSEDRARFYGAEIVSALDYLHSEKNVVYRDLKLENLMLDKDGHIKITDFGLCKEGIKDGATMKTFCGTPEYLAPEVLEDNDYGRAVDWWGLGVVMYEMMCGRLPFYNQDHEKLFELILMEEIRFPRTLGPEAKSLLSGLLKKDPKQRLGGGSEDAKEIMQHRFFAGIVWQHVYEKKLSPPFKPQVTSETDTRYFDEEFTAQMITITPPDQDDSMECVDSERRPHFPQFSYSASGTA
Sequence of p70S6K (T412E mutant) (P23443 whole entry T412E): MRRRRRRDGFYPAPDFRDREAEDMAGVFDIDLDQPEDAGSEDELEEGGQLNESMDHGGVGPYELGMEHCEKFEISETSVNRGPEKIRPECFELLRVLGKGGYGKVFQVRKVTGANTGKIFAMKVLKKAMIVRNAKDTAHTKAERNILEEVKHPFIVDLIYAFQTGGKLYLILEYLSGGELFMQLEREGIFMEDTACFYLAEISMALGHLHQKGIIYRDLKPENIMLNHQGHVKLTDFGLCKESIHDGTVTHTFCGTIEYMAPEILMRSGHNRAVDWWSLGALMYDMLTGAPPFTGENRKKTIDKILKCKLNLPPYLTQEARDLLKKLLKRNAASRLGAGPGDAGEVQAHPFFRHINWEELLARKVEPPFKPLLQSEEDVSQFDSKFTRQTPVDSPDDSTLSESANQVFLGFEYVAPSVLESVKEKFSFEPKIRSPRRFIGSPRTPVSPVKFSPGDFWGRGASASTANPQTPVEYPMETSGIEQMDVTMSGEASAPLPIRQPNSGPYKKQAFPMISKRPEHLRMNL

Take `CNC[C@@H](Nc1ncnc2c(C(N)=O)ccnc12)c1ccc(C(F)(F)F)c(C(F)(F)F)c1` [Compound 43, 4-[(S)-1-(3,4-Bis-trifluoromethyl-phenyl)-2-methylamino-ethylamino]-pyrido[3,2-d]pyrimidine-8-carboxylamide]: the half-inhibitory concentration (IC50) at p70S6K (T412E mutant) and at His-AKT (Full Length) was less than 0.025 µM throughout.

As for `NC(=O)c1cncc2c(N[C@H](CN3CCC3)c3ccc(Cl)c(C(F)(F)F)c3)ncnc12` [Compound 20, (S)-4-((2-(azetidin-1-yl)-1-(4-chloro-3-(trifluoromethyl)phenyl)ethyl)amino)pyrido[4,3-d]pyrimidine-8-carboxamide], the half-inhibitory concentration (IC50) at p70S6K (T412E mutant) is less than 0.025 µM; on His-AKT (Full Length), 0.025 to 0.1 µM.

For the compound `CNC[C@@H](Nc1ncnc2c(C(N)=O)ccnc12)c1ccc(F)c(C(F)F)c1` [Compound 51, 4-[(S)-1-(3-Difluoromethyl-4-fluoro-phenyl)-2-methylamino-ethylamino]-pyrido[3,2-d]pyrimidine-8-carboxylic Acid Amide], the IC50 on p70S6K (T412E mutant) and at His-AKT (Full Length) was less than 0.025 µM each time.

Take `CNC[C@@H](Nc1ncnc2c(C(N)=O)ccnc12)c1cc(F)c(OC)cc1F` [Compound 32, 4-[(S)-1-(2,5-Difluoro-4-methoxy-phenyl)-2-methylamino-ethylamino]-pyrido[3,2-d]pyrimidine-8-carboxylic Acid Amide]: the half-maximal inhibitory concentration (IC50) on p70S6K (T412E mutant) was less than 0.025 µM; on His-AKT (Full Length) it was 0.101 to 0.5 µM.

`CNC[C@@H](Nc1ncnc2c(C(N)=O)ccnc12)c1ccc(F)c(Br)c1` [Compound 28, 4-[(S)-1-(3-Bromo-4-fluoro-phenyl)-2-methylamino-ethylamino]-pyrido[3,2-d]pyrimidine-8-carboxylic Acid Amide]: the IC50 on p70S6K (T412E mutant) and on His-AKT (Full Length) was less than 0.025 µM each time.

Regarding `CNC[C@@H](Nc1ncnc2c(C(N)=O)nccc12)c1ccc(Cl)c(C(F)(F)F)c1` [Compound 42, 4-[(S)-1-(4-Chloro-3-trifluoromethyl-phenyl)-2-methylamino-ethylamino]-pyrido[3,4-d]pyrimidine-8-carboxylic Acid Amide], the IC50 at p70S6K (T412E mutant) and on His-AKT (Full Length) was less than 0.025 µM throughout.

In the case of `CCNC[C@@H](Nc1ncnc2c(C(N)=O)ccnc12)c1ccc(C(F)(F)F)c(F)c1` [Compound 29, 4-[(S)-2-Ethylamino-1-(3-fluoro-4-trifluoromethyl-phenyl)-ethylamino]-pyrido[3,2-d]pyrimidine-8-carboxylic Acid Amide], the values for the IC50 at p70S6K (T412E mutant) and on His-AKT (Full Length) were less than 0.025 µM and 0.025 to 0.1 µM, respectively.

For the compound `CC(C)NC[C@@H](Nc1ncnc2c(C(N)=O)ccnc12)c1ccc(Cl)c(F)c1` [Compound 54, 4-[(S)-1-(4-Chloro-3-fluoro-phenyl)-2-isopropylamino-ethylamino]-pyrido[3,2-d]pyrimidine-8-carboxylic Acid Amide], the results for the IC50 at p70S6K (T412E mutant) and at His-AKT (Full Length) were 0.025 to 0.1 µM and 0.101 to 0.5 µM, respectively.

For the compound `NC(=O)c1cccc2c(NC3CNCCC3c3cccc(C(F)(F)F)c3)nnnc12` (centres unmarked) [Compound 21, 4-((4-(3-(trifluoromethyl)phenyl)piperidin-3-yl)amino)benzo[d][1,2,3]triazine-8-carboxamide], the IC50 at p70S6K (T412E mutant) and on His-AKT (Full Length) was less than 0.025 µM in each case.

With `NC(=O)c1cccc2c(NCc3ccc(C(F)(F)F)cc3)nnnc12` [Compound 8, 4-((4-(trifluoromethyl)benzyl)amino)benzo[d][1,2,3]triazine-8-carboxamide], the half-inhibitory concentration (IC50) at p70S6K (T412E mutant) is 0.025 to 0.1 µM; on His-AKT (Full Length), greater than 1 µM.

For the compound `CN(C)C[C@@H](Nc1ncnc2c(C(N)=O)ccnc12)c1ccc(Cl)c(F)c1` [Compound 53, 4-[(S)-1-(4-Chloro-3-fluoro-phenyl)-2-dimethylamino-ethylamino]-pyrido[3,2-d]pyrimidine-8-carboxylic Acid Amide], at His-AKT (Full Length), the IC50 is 0.025 to 0.1 µM.

For `NC(=O)c1cccc2c(N[C@H](CN3CCC3)c3ccc(Cl)c(Cl)c3)nnnc12` [Compound 16, (S)-4-((2-(azetidin-1-yl)-1-(3,4-dichlorophenyl)ethyl)amino)benzo[d][1,2,3]triazine-8-carboxamide], the IC50 on p70S6K (T412E mutant) and on His-AKT (Full Length) was less than 0.025 µM in each case.

As to `NC(=O)c1ccnc2c(N[C@H](CN3CCC3)c3ccc(C(F)(F)F)cc3)ncnc12` [Compound 27, 4-[(S)-2-Azetidin-1-yl-1-(4-trifluoromethyl-phenyl)-ethylamino]-pyrido[3,2-d]pyrimidine-8-carboxylic Acid Amide], the values for the IC50 at p70S6K (T412E mutant) and at His-AKT (Full Length) were less than 0.025 µM and 0.101 to 0.5 µM, respectively.

`CC(C)NC[C@@H](Nc1ncnc2c(C(N)=O)ccnc12)c1ccc(F)c(C(F)(F)F)c1` [Compound 52, 4-[(S)-1-(4-Fluoro-3-trifluoromethyl-phenyl)-2-isopropylamino-ethylamino]-pyrido[3,2-d]pyrimidine-8-carboxylic Acid Amide]: the half-inhibitory concentration (IC50) lay within 0.025 to 0.1 µM on p70S6K (T412E mutant) and 0.101 to 0.5 µM on His-AKT (Full Length).

As to `CNC[C@@H](Nc1ncnc2c(C(N)=O)ccnc12)c1ccc(C(C)C)cc1` [Compound 39, 4-[(S)-1-(4-Isopropyl-phenyl)-2-methylamino-ethylamino]-pyrido[3,2-d]pyrimidine-8-carboxylic Acid Amide], the 50% inhibitory concentration (IC50) was less than 0.025 µM on p70S6K (T412E mutant) and 0.101 to 0.5 µM at His-AKT (Full Length).

Regarding `CNC[C@@H](Nc1ncnc2c(C(N)=O)ccnc12)c1ccc(F)c(C(F)(F)F)c1` [Compound 49, 4-[(S)-1-(4-Fluoro-3-trifluoromethyl-phenyl)-2-methylamino-ethylamino]-pyrido[3,2-d]pyrimidine-8-carboxylic Acid Amide], the 50% inhibitory concentration (IC50) on p70S6K (T412E mutant) and at His-AKT (Full Length) was less than 0.025 µM throughout.

On to `NC(=O)c1cccc2c(NC3CNCCC3c3ccc(C(F)(F)F)cc3)nnnc12` (centres unmarked) [Compound 22, 4-((4-(4-(trifluoromethyl)phenyl)piperidin-3-yl)amino)benzo[d][1,2,3]triazine-8-carboxamide], for which the IC50 at p70S6K (T412E mutant) is less than 0.025 µM; at His-AKT (Full Length) it was 0.101 to 0.5 µM.

Turning to `NC(=O)c1cccc2c(NCc3ccc(C(F)(F)F)cn3)nnnc12` [Compound 7, 4-(((5-(trifluoromethyl)pyridin-2-yl)methyl)amino)benzo[d][1,2,3]triazine-8-carboxamide], the half-inhibitory concentration (IC50) at p70S6K (T412E mutant) and on His-AKT (Full Length) was greater than 1 µM in each case.

Take `CC(C)NC[C@@H](Nc1ncnc2c(C(N)=O)ccnc12)c1ccc(Cl)c(C(F)(F)F)c1` [Compound 55, 4-[(S)-1-(4-Chloro-3-trifluoromethyl-phenyl)-2-isopropylamino-ethylamino]-pyrido[3,2-d]pyrimidine-8-carboxylic Acid Amide]: the IC50 on p70S6K (T412E mutant) and at His-AKT (Full Length) was 0.101 to 0.5 µM throughout.

As to `CCNC[C@@H](Nc1ncnc2c(C(N)=O)ccnc12)c1ccc(C(F)(F)F)c(C(F)(F)F)c1` [Compound 59, 4-[(S)-1-(3,4-Bis-trifluoromethyl-phenyl)-2-ethylamino-ethylamino]-pyrido[3,2-d]pyrimidine-8-carboxylic Acid Amide], the half-maximal inhibitory concentration (IC50) on p70S6K (T412E mutant) and at His-AKT (Full Length) was less than 0.025 µM each time.

For `CCNC[C@@H](Nc1ncnc2c(C(N)=O)ccnc12)c1ccc(F)c(Br)c1` [Compound 30, 4-[(S)-1-(3-Bromo-4-fluoro-phenyl)-2-ethylamino-ethylamino]-pyrido[3,2-d]pyrimidine-8-carboxylic Acid Amide], at His-AKT (Full Length), the IC50 was in the range of 0.025 to 0.1 µM.

As for `CCNC[C@@H](Nc1ncnc2c(C(N)=O)ccnc12)c1ccc(F)c(Cl)c1` [Compound 61, 4-[(S)-1-(3-Chloro-4-fluoro-phenyl)-2-ethylamino-ethylamino]-pyrido[3,2-d]pyrimidine-8-carboxylic Acid Amide], the IC50 on His-AKT (Full Length) is 0.025 to 0.1 µM.
